These results are taken from patent publication US5047533A, “Acyclic purine phosphonate nucleotide analogs” (SRI International, priority 1990, dated 1991).

Test [1] concerns reverse transcriptase (RT) from Moloney murine leukemia virus (MMLV) or avian myeloblastosis virus (AMV). Briefly: Reverse transcriptase assay. The test is classed as biochemical. Conditions: 1 mM. As to the method: For the reverse transcriptase assay, cloned reverse transcriptase (RT) (Bethesda Research Laboratories) from Moloney murine leukemia virus (MMLV) or avian myeloblastosis virus (AMV) (Seikagaku or Boehringer Mannheim) was used to direct DNA synthesis from a polyribonucleotide template and a oligodeoxynucleotide primer under reaction conditions (Houts, G. E., et al, J Virol (1979) 29:517.)
Reaction mixtures (100 μl) for the assay of MMLV RT consisted of 50 mM Tris-hydrochloride, pH 8.0, 6 mM MgCl2, 40 mM KCl, 100 μg bovine serum albumin per ml, 1 mM dithiothreitol, 0.1 mM polyadenylic acid (Pharmacia, Inc.), 0.1 mM oligo(dT)12-18 (Pharmacia, Inc.), 0.4 mM deoxythymidine triphosphate (dTTP), and 0.1 mM tritiated (93.5 Cl/mmol) dTTP (New England Nuclear). The compounds assayed were added in various concentrations and dilutions at a volume of 10 μl. Results were confirmed by duplicate assays. Dilutions were made using 10% aqueous DMSO. The total activity was measured by spotting on dry Whatman 3 mm filter disks and radioactivity was determined by liquid scintillation techniques. The assay time course was begun by adding 10 units of RT from MMLV or AMV and incubating the reaction at 37° C. […] Disks were dried under a heat lamp and the acid-insoluble product radioactivity was determined by liquid scintillation counting. […]

In test [2] the test system is HIV. As to the kind of experiment: Antiviral activity versus HIV in lymphoblastoid cells. The test is classed as cell-based. The conditions noted are these: Human immunodeficiency virus 1, Lymphoblastoid cell, read-out: ED50 against HIV. As to the method:
The compounds of the invention were evaluated in vitro as antiviral agents against herpes virus and against RNA retrovirus. Various herpes strains were used. An infected B lymphoblastoid cell line was used as HIV substrate to test antiviral activity with respect to RNA retrovirus.
To test antiviral activity versus HIV, the following procedure was used: Infectious HIV was assayed in cell culture as described originally by Barre-Sinoussi et al for isolation of LAV, except that persistently infected lymphoblastoid cells were used instead of mononuclear cells from anti-LAV negative donors. HIV obtained from cell culture was stored in liquid nitrogen in aliquots of RPMI 1640 culture medium with 20% of total calf serum and 20% glycerol and containing 1,000 TCID-50 HIV. The lymphoblastoid cells (10^6) were incubated with 1,000 TCID-50 of HIV obtained from cell cultures, and cells were then cultured in RPMI-1640 medium. Culture medium was changed every 3 days for 3 weeks and the medium for each 3-day period from Day 6 through Day 21 was assayed for viral reverse transcriptase activity by concentrating (pelleting) virus by ultracentrifugation in the 100 place Spinco 25 rotor and assaying pellets for reverse transcriptase (RT) using a ^32 P-dTTP in the presence of dimer-template poly rA-oligo dT. […]

For test [3], the system named is HSV-1TK+ (Strain McCrae of type 1 herpes). As to the kind of experiment: Inhibition of viral CPE, HSV-1TK+ in MA-104 cells. The test is classed as cell-based. On the procedure:
(§1) One herpes virus strain employed was Strain McCrae of type 1 herpes (thymidine kinase positive virus) (HSV-1TK^+). This strain was prepared and titered in MA-104 cells and frozen at -90° C. until use. Also used were strain HF (HSV-1TK^-). Strain E194 (HSV-2), NJB strain (MCMV), strain AD169 (HCMV).
Continuous passaged monkey kidney (MA-104) cells were used for testing of herpes-type virus, with growth medium consisting of Minimum Essential Medium (MEM) supplemented with 0.1% NaHCO3 and […] gentamicin.
To a 96 well microtiter plate containing an established 24 hour monolayer of cells from which the medium has been decanted was added 0.1 ml of varying (one-half log10) concentrations of test compound, which incubated on the cell 15 minutes, after which 0.1 ml of virus in a concentration of 320 cell culture 50% infectious doses (CCID50)/0.1 ml was added. The plate was covered with plastic wrap and incubated at 37° C. Included with the test were toxicity controls (each concentration of compound+test medium in place of virus), virus controls (virus+test medium in place of compound) and cell controls (test medium in place of compound and virus). The cells were examined microscopically after 72 hours for evidence of cytotoxicity and for viral cytopathic effect (CPE). Vidarabine was run on the same plate in parallel. […] were added to the medium at a concentration of 2000 μg/ml for use as a positive control.
Antiviral activity was determined by observation of inhibition of viral CPE. This activity was expressed by ED50, defined as that dose range of compound causing 50% CPE inhibition.
A Virus Rating (VR) was also determined. VR is a numerical expression of antiviral activity, weighted to take into account any cytotoxicity observed, as discussed by Sidewell et al, Appl Microbiol (1971) 22:797. Generally, a VR of 0.1-0.4 indicates slight antiviral effect, 0.5-0.9 indicates moderate antiviral effect, and ≥1.0 indicates strong antiviral effect.

For test [4], the system named is human cytomegalovirus (strain AD169). Briefly: Plaque reduction, human cytomegalovirus. The test is classed as cell-based. As to the method: as §1
^a 50% effective dose, determined from plot of data.
The data on acyclovir were gathered from tests run in MRC-5 cells grown under agarose overlay, with plaques read 7 days after virus exposure.

≈ marks a conversion by molar mass, not a printed value. Read-outs that look alike come from different tables or passages of the source.

`CCOP(=O)(O)CCCOCn1cnc2c(=O)[nH]c(N)nc21` [Compound 2, 9(3'-ethylphosphono-1'-propyloxymethyl)guanine]: the “inhibition of reverse transcriptase” value in test [1] stood at 100%. The EC50 was 30 µg/mL (≈ 90.6 µM) in test [2]; under 1 µg/mL in test [3] (MA104, 72 h, read-out: ED50); 10 to 32 µg/mL (≈ 30.2 to 96.6 µM) in test [4] (Human betaherpesvirus 5, AD169, read-out: Approx. ED50, Experiment No. 2, determined from plot of data); 10 µg/mL (≈ 30.2 µM) in test [4] (Human betaherpesvirus 5, AD169, read-out: ED50, human CMV). Moreover, the “activity against HSV-1TK+ relative to vidarabine” value in test [3] is given as “comparable to that of vidarabine”. In test [3] (MA104, read-out: CPE Inhib., Table 3 Test 1, 1000 μg/ml), the inhibition at 1000 µg/mL is 100%. Also, the “VR (Virus Rating)” value is listed as over 2.0 in test [3] (Table 3 Test 1, HSV-1TK+) and over 1.4 in test [3] (Table 3 Test 2, HSV-1TK+). The same compound returned an ED50 in test [3] (Table 3 Test 2, HSV-1TK+) of under 1.0 µg/mL. For the same compound, the “No. Plaques” value in test [4] (Experiment No. 1, 32 μg/ml) stood at 5; in test [4] (Experiment No. 1, 100 μg/ml), 0; in test [4] (Experiment No. 2, 10 μg/ml), 17; in test [4] (Experiment No. 2, 32 μg/ml), 6; in test [4] (Experiment No. 2, 100 μg/ml) it was 1. Further, the inhibition at 32 µg/mL was 71% in test [4] (Human betaherpesvirus 5, AD169, read-out: % Reduct., Experiment No. 1, 32 μg/ml) and 73% in test [4] (Human betaherpesvirus 5, AD169, read-out: % Reduct., Experiment No. 2, 32 μg/ml). Further, the inhibition at 100 µg/mL in test [4] (Human betaherpesvirus 5, AD169, read-out: % Reduct., Experiment No. 1, 100 μg/ml) stood at 100%; in test [4] (Human betaherpesvirus 5, AD169, read-out: % Reduct., Experiment No. 2, 100 μg/ml) it was 96%. For the same compound, the inhibition at 10 µg/mL in test [4] (Human betaherpesvirus 5, AD169, read-out: % Reduct., Experiment No. 2, 10 μg/ml) worked out at 23%. In test [4] (overall, Table 5), the “human CMV-inhibitory effect relative to acyclovir” value is listed as “approximately the same”.
